In paper PMC8709289, “Tetrahydroimidazo[4,5-c]pyridine-Based Inhibitors of Porphyromonas gingivalis Glutaminyl Cyclase” (Pharmaceuticals, 2021):

Biological target: hQC (human glutaminyl cyclase) (Homo sapiens, UniProt Q16769)
Assay: Inhibition of human glutaminyl cyclase, fluorogenic substrate H-Gln-AMC
Assay type: biochemical
Settings: not given

Sequence of hQC (human glutaminyl cyclase) (Q16769 29-361): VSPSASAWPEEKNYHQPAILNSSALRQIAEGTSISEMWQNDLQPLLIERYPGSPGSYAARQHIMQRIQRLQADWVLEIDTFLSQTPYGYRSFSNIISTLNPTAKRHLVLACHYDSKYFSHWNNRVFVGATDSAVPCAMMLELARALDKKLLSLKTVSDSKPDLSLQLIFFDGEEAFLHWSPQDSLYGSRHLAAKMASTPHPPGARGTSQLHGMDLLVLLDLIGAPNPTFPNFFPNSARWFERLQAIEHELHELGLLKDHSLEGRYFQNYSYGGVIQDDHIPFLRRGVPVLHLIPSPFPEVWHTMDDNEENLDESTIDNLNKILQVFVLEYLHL

| SMILES | Ki [nM] |
| --- | --- |
| c1ccc(Cn2ccnc2)cc1 [compound 3, N-benzylimidazole, reference compound] | 17000 ± 3000 |

Same assay, conditions: recombinant QC, competitive inhibition fit; read-out: Ki hQC

| SMILES | Ki [nM] |
| --- | --- |
| O=C(c1cc(Cl)cc(Cl)c1)N1CCc2nc[nH]c2C1 [8k, (3,5-Dichlorophenyl)-(3,4,6,7-tetrahydroimidazo[4,5-c]pyridin-5-yl)methanone] | 387 ± 64 |
| COc1cc(Cl)cc(C(=O)N2CCc3[nH]cnc3C2)c1 [8t, (3-Chloro-5-methoxyphenyl)(1,4,6,7-tetrahydro-5H-imidazo[4,5-c]pyridin-5-yl)methanone] | 385 ± 96 |
| O=C(c1ccc2ccccc2c1)N1CCc2nc[nH]c2C1 [8w, Naphthalen-2-yl-(3,4,6,7-tetrahydroimidazo[4,5-c]pyridin-5-yl)methanone] | 132 ± 11 |

Test system: not listed separately
Assay: Cytotoxicity, cell viability in SHSY-5Y
Assay type: cell-based
Settings: human, SHSY-5Y cells; 30 µM compound
Source text: (§1) Table 3 Inhibition of related glutaminyl cyclases from bacteria and human and cytotoxicity of selected inhibitors. | column: 8k; 8t; 8w

| SMILES | viability at 30 µM [%] |
| --- | --- |
| O=C(c1cc(Cl)cc(Cl)c1)N1CCc2nc[nH]c2C1 [8k, (3,5-Dichlorophenyl)-(3,4,6,7-tetrahydroimidazo[4,5-c]pyridin-5-yl)methanone] | 119 |
| COc1cc(Cl)cc(C(=O)N2CCc3[nH]cnc3C2)c1 [8t, (3-Chloro-5-methoxyphenyl)(1,4,6,7-tetrahydro-5H-imidazo[4,5-c]pyridin-5-yl)methanone] | 128 |
| O=C(c1ccc2ccccc2c1)N1CCc2nc[nH]c2C1 [8w, Naphthalen-2-yl-(3,4,6,7-tetrahydroimidazo[4,5-c]pyridin-5-yl)methanone] | 127 |

Biological target: PiQC (Prevotella intermedia, UniProt A0A3R7XL21)
Assay: Inhibition of Prevotella intermedia glutaminyl cyclase, fluorogenic substrate H-Gln-AMC
Assay type: biochemical
Settings: recombinant QC, competitive inhibition fit
Procedure: The enzymatic activity of recombinant QCs were evaluated using the fluorogenic substrate H-Gln-AMC as described previously [25]. For inhibitor testing, compounds were added with 1% (v/v) DMSO in the reaction mixture.

Sequence of PiQC (A0A3R7XL21 entry or part of it): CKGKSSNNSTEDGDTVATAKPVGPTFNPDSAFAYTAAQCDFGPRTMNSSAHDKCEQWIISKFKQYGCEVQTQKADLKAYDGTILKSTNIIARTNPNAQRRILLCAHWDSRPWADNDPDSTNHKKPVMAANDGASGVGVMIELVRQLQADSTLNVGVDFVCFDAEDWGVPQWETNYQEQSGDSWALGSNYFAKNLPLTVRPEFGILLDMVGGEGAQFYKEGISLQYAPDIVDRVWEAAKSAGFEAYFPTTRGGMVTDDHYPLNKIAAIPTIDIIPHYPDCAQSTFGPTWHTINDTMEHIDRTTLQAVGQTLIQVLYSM

| SMILES | Ki [nM] |
| --- | --- |
| O=C(c1cc(Cl)cc(Cl)c1)N1CCc2nc[nH]c2C1 [8k, (3,5-Dichlorophenyl)-(3,4,6,7-tetrahydroimidazo[4,5-c]pyridin-5-yl)methanone] | 63 ± 7 |
| COc1cc(Cl)cc(C(=O)N2CCc3[nH]cnc3C2)c1 [8t, (3-Chloro-5-methoxyphenyl)(1,4,6,7-tetrahydro-5H-imidazo[4,5-c]pyridin-5-yl)methanone] | 96 ± 12 |
| O=C(c1ccc2ccccc2c1)N1CCc2nc[nH]c2C1 [8w, Naphthalen-2-yl-(3,4,6,7-tetrahydroimidazo[4,5-c]pyridin-5-yl)methanone] | 117 ± 2 |

Test system: not listed separately
Assay: Cytotoxicity, cell viability in Hep-G2
Assay type: cell-based
Settings: human, Hep-G2 cells; 30 µM compound
Source text: as §1

| SMILES | viability at 30 µM [%] |
| --- | --- |
| O=C(c1cc(Cl)cc(Cl)c1)N1CCc2nc[nH]c2C1 [8k, (3,5-Dichlorophenyl)-(3,4,6,7-tetrahydroimidazo[4,5-c]pyridin-5-yl)methanone] | 92 |
| COc1cc(Cl)cc(C(=O)N2CCc3[nH]cnc3C2)c1 [8t, (3-Chloro-5-methoxyphenyl)(1,4,6,7-tetrahydro-5H-imidazo[4,5-c]pyridin-5-yl)methanone] | 96 |
| O=C(c1ccc2ccccc2c1)N1CCc2nc[nH]c2C1 [8w, Naphthalen-2-yl-(3,4,6,7-tetrahydroimidazo[4,5-c]pyridin-5-yl)methanone] | 94 |

Biological target: PgQC (glutaminyl cyclase from P. gingivalis) (Porphyromonas gingivalis, UniProt Q7MT37)
Assay: Inhibition of P. gingivalis glutaminyl cyclase, fluorogenic substrate H-Gln-AMC
Assay type: biochemical
Settings: not given

Sequence of PgQC (glutaminyl cyclase from P. gingivalis) (Q7MT37 entry or part of it): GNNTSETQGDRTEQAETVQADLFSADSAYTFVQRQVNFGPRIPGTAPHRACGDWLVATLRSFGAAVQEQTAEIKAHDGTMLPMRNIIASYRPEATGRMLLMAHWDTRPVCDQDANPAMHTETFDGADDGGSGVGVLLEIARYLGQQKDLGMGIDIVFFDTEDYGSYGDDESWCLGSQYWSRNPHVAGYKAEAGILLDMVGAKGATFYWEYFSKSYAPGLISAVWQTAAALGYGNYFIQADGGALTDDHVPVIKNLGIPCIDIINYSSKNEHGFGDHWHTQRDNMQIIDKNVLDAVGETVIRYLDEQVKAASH

| SMILES | Ki [nM] |
| --- | --- |
| O=C(c1ccc2ccccc2c1)N1CCc2nc[nH]c2C1 [8w, Naphthalen-2-yl-(3,4,6,7-tetrahydroimidazo[4,5-c]pyridin-5-yl)methanone] | 126 ± 9 |

Same assay, conditions: @ 10 µM

| SMILES | Inhibition of PgQC at 10 µM |
| --- | --- |
| c1ccc(CNCCc2c[nH]cn2)cc1 [6a, N-Benzylhistamine] | no inhibition @ 10 µM |
| c1ccc(CN2CCc3nc[nH]c3C2c2ccccc2)cc1 (stereo not shown) [7e, 5-Benzyl-4-phenyl-3,4,6,7-tetrahydroimidazo[4,5-c]pyridine] | no inhibition @ 10 µM |

Same assay, conditions: recombinant QC, competitive inhibition fit; read-out: Ki PgQC

| SMILES | Ki [nM] |
| --- | --- |
| c1ccc(CN2CCc3[nH]cnc3C2)cc1 [7a, 5-Benzyl-3,4,6,7-tetrahydroimidazo[4,5-c]pyridine] | 909 ± 5 |
| c1ccc(CCN2CCc3[nH]cnc3C2)cc1 [7b, 5-(2-Phenylethyl)-3,4,6,7-tetrahydroimidazo[4,5-c]pyridine] | 6470 ± 400 |
| c1ccc(CN2CCc3[nH]cnc3C23COC3)cc1 [7c, 5-Benzylspiro[6,7-dihydro-3H-imidazo[4,5-c]pyridine-4,3′-oxetane]] | 1760 ± 145 |
| CC1c2nc[nH]c2CCN1Cc1ccccc1 (stereo not shown) [7d, 5-Benzyl-4-methyl-3,4,6,7-tetrahydroimidazo[4,5-c]pyridine] | 3080 ± 40 |
| O=C(c1ccccc1)N1CCc2[nH]cnc2C1 [8a, Phenyl(3,4,6,7-tetrahydroimidazo[4,5-c]pyridin-5-yl)methanone] | 435 ± 15 |
| O=C(Cc1ccccc1)N1CCc2[nH]cnc2C1 [8b, 2-Phenyl-1-(3,4,6,7-tetrahydroimidazo[4,5-c]pyridin-5-yl)ethanone] | 1680 ± 80 |
| O=C(CCc1ccccc1)N1CCc2[nH]cnc2C1 [8c, 3-Phenyl-1-(3,4,6,7-tetrahydroimidazo[4,5-c]pyridin-5-yl)propan-1-one] | 1750 ± 60 |
| O=C(/C=C/c1ccccc1)N1CCc2[nH]cnc2C1 [8d, (E)-3-Phenyl-1-(3,4,6,7-tetrahydroimidazo[4,5-c]pyridin-5-yl)prop-2-en-1-one] | 1570 ± 25 |
| O=C(c1ccc(F)cc1)N1CCc2[nH]cnc2C1 [8e, (4-Fluorophenyl)-(3,4,6,7-tetrahydroimidazo[4,5-c]pyridin-5-yl)methanone] | 879 ± 8 |
| O=C(c1cccc(F)c1)N1CCc2[nH]cnc2C1 [8f, (3-Fluorophenyl)-(3,4,6,7-tetrahydroimidazo[4,5-c]pyridin-5-yl)methanone] | 322 ± 6 |
| O=C(c1cc(F)c(F)c(F)c1)N1CCc2[nH]cnc2C1 [8g, (3,4,6,7-Tetrahydroimidazo[4,5-c]pyridin-5-yl)(3,4,5-trifluoro-phenyl)methanone] | 904 ± 7 |
| O=C(c1ccc(Cl)cc1)N1CCc2[nH]cnc2C1 [8h, (4-Chlorophenyl)-(3,4,6,7-tetrahydroimidazo[4,5-c]pyridin-5-yl)methanone] | 682 ± 25 |
| O=C(c1cccc(Cl)c1)N1CCc2[nH]cnc2C1 [8i, (3-Chlorophenyl)-(3,4,6,7-tetrahydroimidazo[4,5-c]pyridin-5-yl)methanone] | 174 ± 14 |
| O=C(c1ccc(Cl)c(Cl)c1)N1CCc2[nH]cnc2C1 [8j, (3,4-Dichlorophenyl)-(3,4,6,7-tetrahydroimidazo[4,5-c]pyridin-5-yl)methanone] | 257 ± 16 |
| O=C(c1cc(Cl)cc(Cl)c1)N1CCc2nc[nH]c2C1 [8k, (3,5-Dichlorophenyl)-(3,4,6,7-tetrahydroimidazo[4,5-c]pyridin-5-yl)methanone] | 100 ± 6 |
| COc1ccc(C(=O)N2CCc3[nH]cnc3C2)cc1 [8l, (4-Methoxyphenyl)-(3,4,6,7-tetrahydroimidazo[4,5-c]pyridin-5-yl)methanone] | 833 ± 49 |
| COc1cccc(C(=O)N2CCc3[nH]cnc3C2)c1 [8m, (3-Methoxyphenyl)-(3,4,6,7-tetrahydroimidazo[4,5-c]pyridin-5-yl)methanone] | 335 ± 6 |
| COc1ccc(C(=O)N2CCc3[nH]cnc3C2)cc1OC [8n, (3,4-Dimethoxyphenyl)-(3,4,6,7-tetrahydroimidazo[4,5-c]pyridin-5-yl)methanone] | 1470 ± 304 |
| COc1cc(OC)cc(C(=O)N2CCc3[nH]cnc3C2)c1 [8o, (3,5-Dimethoxyphenyl)-(3,4,6,7-tetrahydroimidazo[4,5-c]pyridin-5-yl)methanone] | 928 ± 21 |
| O=C(c1ccc2c(c1)OCCO2)N1CCc2[nH]cnc2C1 [8p, (2,3-Dihydrobenzo[b][1,4]dioxin-6-yl)(1,4,6,7-tetrahydro-5H-imidazo-[4,5-c]pyridin-5-yl)methanone] | 1340 ± 219 |
| O=C(c1ccc2c(c1)OCO2)N1CCc2[nH]cnc2C1 [8q, Benzo[d][1,3]dioxol-5-yl(3,4,6,7-tetrahydroimidazo[4,5-c]pyridin-5-yl)methanone] | 560 ± 4 |
| CCCOc1cccc(C(=O)N2CCc3[nH]cnc3C2)c1 [8r, (3-Propoxyphenyl)-(3,4,6,7-tetrahydroimidazo[4,5-c]pyridin-5-yl)methanone] | 780 ± 24 |
| COc1cc(C(=O)N2CCc3[nH]cnc3C2)ccc1F [8s, (4-Fluoro-3-methoxyphenyl)-(3,4,6,7-tetrahydroimidazo[4,5-c]pyridin-5-yl)methanone] | 1240 ± 113 |
| COc1cc(Cl)cc(C(=O)N2CCc3[nH]cnc3C2)c1 [8t, (3-Chloro-5-methoxyphenyl)(1,4,6,7-tetrahydro-5H-imidazo[4,5-c]pyridin-5-yl)methanone] | 87 ± 6 |
| O=C(c1ccc(-c2ccccc2)cc1)N1CCc2[nH]cnc2C1 [8u, [1,1′-Biphenyl]-4-yl(3,4,6,7-tetrahydroimidazo[4,5-c]pyridin-5-yl)methanone] | 1900 ± 71 |
| O=C(c1cccc(-c2ccccc2)c1)N1CCc2[nH]cnc2C1 [8v, [1,1′-Biphenyl]-3-yl-(3,4,6,7-tetrahydroimidazo[4,5-c]pyridin-5-yl)methanone] | 547 ± 41 |
| COc1ccc(NC(=S)NCCCn2ccnc2)cc1OC [PQ50, reference compound] | 6000 ± 150 |
| c1ccc2[nH]cnc2c1 [compound 1, benzimidazole, reference compound] | 32000 ± 1400 |
| c1c[nH]cn1 [compound 2, imidazole, reference compound] | 350000 ± 23000 |
| c1ccc(Cn2ccnc2)cc1 [compound 3, N-benzylimidazole, reference compound] | 10000 ± 200 |

Biological target: TfQC
Assay: Inhibition of Tannerella forsythia glutaminyl cyclase, fluorogenic substrate H-Gln-AMC
Settings: read-out: Ki TfQC; recombinant QC, competitive inhibition fit
Procedure: The enzymatic activity of recombinant QCs were evaluated using the fluorogenic substrate H-Gln-AMC as described previously [25]. For inhibitor testing, compounds were added with 1% (v/v) DMSO in the reaction mixture. Inhibitory constants were determined using concentrations of H-Gln-AMC varying from 1/4 KM to 2 KM and a final concentration of QC in a range between 20 and 50 nM. Progress curves were fitted to the general equation for competitive inhibition using GraFit software (Version 7, Erithacus software Ltd., Horley, UK).

| SMILES | Ki [nM] |
| --- | --- |
| O=C(c1cc(Cl)cc(Cl)c1)N1CCc2nc[nH]c2C1 [8k, (3,5-Dichlorophenyl)-(3,4,6,7-tetrahydroimidazo[4,5-c]pyridin-5-yl)methanone] | 176 ± 3 |
| COc1cc(Cl)cc(C(=O)N2CCc3[nH]cnc3C2)c1 [8t, (3-Chloro-5-methoxyphenyl)(1,4,6,7-tetrahydro-5H-imidazo[4,5-c]pyridin-5-yl)methanone] | 221 ± 19 |
| O=C(c1ccc2ccccc2c1)N1CCc2nc[nH]c2C1 [8w, Naphthalen-2-yl-(3,4,6,7-tetrahydroimidazo[4,5-c]pyridin-5-yl)methanone] | 185 ± 10 |
